Measurements reported in patent US20240132464A1, “HETEROCYCLIC COMPOUNDS AS E3 LIGASE INHIBITORS” (Accutar Biotechnology Inc., priority 2022, published 2024).

Biological target: T1, GID4 (Uniprot ID: Q81VV7, residues 124-289) (Homo sapiens, UniProt Q8IVV7)
T1 construct: GID4 (Uniprot ID: Q81VV7, residues 124-289)
T1 sequence (Q8IVV7 124-289): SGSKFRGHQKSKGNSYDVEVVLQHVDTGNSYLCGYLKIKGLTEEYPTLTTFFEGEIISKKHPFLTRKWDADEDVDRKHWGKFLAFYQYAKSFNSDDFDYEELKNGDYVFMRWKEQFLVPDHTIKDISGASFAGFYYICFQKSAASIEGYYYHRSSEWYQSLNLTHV
Experiment: GID4 competitive binding assay (AlphaScreen, GID4/degron peptide PGLW)
Settings: 24 nM GID4, 48 nM biotinylated degron peptide PGLW, 4° C., read-out: IC50 (Inhibition of GID4/Degron binding by test compounds)
How it was run: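 His-tagged human GID4 (residues 124-289, 24 nM) pre-incubated 2 h at 4 °C with 48 nM biotinylated PGLW peptide and compound in HEPES pH 7.5 buffer, 2% DMSO (final). AlphaScreen streptavidin donor/Ni-NTA acceptor beads added for 1 h; IC50 from nonlinear fit of % inhibition versus DMSO.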

Row | SMILES | IC50
1 | CCOc1ccc(Br)c(C2CN(c3cc(N)nc(N)n3)CCN2)c1 (single isomer, unassigned) [Compound 24, (S/R)-6-(3-(2-bromo-5-ethoxyphenyl)piperazin-1-yl)pyrimidine-2,4-diamine] | < 500 nM
2 | Nc1nc(N2CCO[C@@H](c3ccccc3Br)C2)c2cc[nH]c2n1 (racemic) [Compound 40, (S/R)-4-(2-(2-bromophenyl)morpholino)-7H-pyrrolo[2,3-d]pyrimidin-2-amine] | 500 to 5000 nM
3 | CC(C)c1cc(N2CCC=C(c3ccccc3Br)C2)nc(N)n1 [Compound 230, 4-(5-(2-bromophenyl)-3,6-dihydropyridin-1(2H)-yl)-6-isopropylpyrimidin-2-amine] | > 5000 nM
4 | Nc1nc(NCC2CC2)cc(N2CCN[C@@H](c3ccccc3Br)C2)n1 (racemic) [Compound 112, (S/R)-6-(3-(2-bromophenyl)piperazin-1-yl)-N4-(cyclopropylmethyl)pyrimidine-2,4-diamine] | < 500 nM
5 | CC(C)Nc1nc(C(C)C)cc(N2CCNC(c3ccccc3Br)C2)n1 (single isomer, unassigned) [Compound 150, (S/R)-4-(3-(2-bromophenyl)piperazin-1-yl)-N,6-diisopropylpyrimidin-2-amine] | > 5000 nM
6 | CN1CCN(C(=O)c2ccc(Br)c([C@H]3CN(c4cc(N)nc(N)n4)CCN3)c2)CC1 (racemic) [Compound 16, (S/R)-(4-bromo-3-(4-(2,6-diaminopyrimidin-4-yl)piperazin-2-yl)phenyl)(4-methylpiperazin-1-yl)methanone] | 500 to 5000 nM
7 | CC(C)c1cc(N2CCNC(c3cc(N4CCNCC4)ccc3Br)C2)nc(N)n1 (stereo not drawn) [Compound 41, 4-(3-(2-bromo-5-(piperazin-1-yl)phenyl)piperazin-1-yl)-6-isopropylpyrimidin-2-amine] | < 500 nM
8 | CN(C)CCCNC(=O)c1cc(-c2cc(O)c3ncccc3c2)c[nH]1 [Compound 269, N-(3-(dimethylamino)propyl)-4-(8-hydroxyquinolin-6-yl)-1H-pyrrole-2-carboxamide] | < 500 nM
9 | Nc1nc(N2CCCC(c3ccn[nH]3)C2)c2sccc2n1 (stereo not drawn) [Compound 217, 4-(3-(1H-pyrazol-5-yl)piperidin-1-yl)thieno[3,2-d]pyrimidin-2-amine] | > 5000 nM
10 | CC(C)c1nc(N)cc(N2CCO[C@@H](c3ccccc3Br)C2)n1 (racemic) [Compound 72, (S/R)-6-(2-(2-bromophenyl)morpholino)-2-isopropylpyrimidin-4-amine] | < 500 nM
11 | Nc1nc(N)c(F)c(N2CCOC(c3ccccc3Br)C2)n1 (single isomer, unassigned) [Compound 48, (S/R)-6-(2-(2-bromophenyl)morpholino)-5-fluoropyrimidine-2,4-diamine] | > 5000 nM
12 | CNc1cc(N2CCN[C@@H](c3ccccc3Br)C2)nc(NC)n1 (stereo in doubt) [Compound 130, (S/R)-6-(3-(2-bromophenyl)piperazin-1-yl)-N2,N4-dimethylpyrimidine-2,4-diamine] | > 5000 nM
13 | CN1CCN(c2cc(NCC3CC3)nc(N)n2)CC1c1ccccc1Br (single isomer, unassigned) [Compound 99, (R/S)-6-(3-(2-bromophenyl)-4-methylpiperazin-1-yl)-N4-(cyclopropylmethyl)pyrimidine-2,4-diamine] | < 500 nM
14 | Nc1nccc2c(O)cc(-c3cccc(C(=O)N4CCCC4)c3)cc12 [Compound 266, (3-(1-amino-5-hydroxyisoquinolin-7-yl)phenyl)(pyrrolidin-1-yl)methanone] | > 5000 nM
15 | CN(C)CCCNC(=O)c1ccc(-c2cc(O)c3ncccc3c2)cc1Br [Compound 313, 2-bromo-N-(3-(dimethylamino)propyl)-4-(8-hydroxyquinolin-6-yl)benzamide] | 500 to 5000 nM
16 | Nc1nc2c(c(N3CCCC(c4cnc5ccccn45)C3)n1)CCCN2 (stereo not drawn) [Compound 88, 4-(3-(imidazo[1,2-a]pyridin-3-yl)piperidin-1-yl)-5,6,7,8-tetrahydropyrido[2,3-d]pyrimidin-2-amine] | > 5000 nM
17 | Nc1nc2c(c(N3CCNC(c4ccccc4Br)C3)n1)CSC2 (stereo not drawn) [Compound 189, 4-(3-(2-bromophenyl)piperazin-1-yl)-5,7-dihydrothieno[3,4-d]pyrimidin-2-amine] | > 5000 nM
18 | CN(C)C(=O)CCC1CCCN(c2nc(N)nc3c2CCCN3)C1 (stereo not drawn) [Compound 135, 3-(1-(2-amino-5,6,7,8-tetrahydropyrido[2,3-d]pyrimidin-4-yl)piperidin-3-yl)-N,N-dimethylpropanamide] | 500 to 5000 nM
19 | CN1CCN(C(=O)c2ccc(Br)c(C3CN(c4cc(N)nc(N)n4)CCN3)c2)CC1 (single isomer, unassigned) [Compound 15, (R/S)-(4-bromo-3-(4-(2,6-diaminopyrimidin-4-yl)piperazin-2-yl)phenyl)(4-methylpiperazin-1-yl)methanone] | < 500 nM
20 | CNc1cc(N2CCC[C@H](c3ccccc3Br)C2)nc(N)n1 (stereo in doubt) [Compound 86, (R/S)-6-(3-(2-bromophenyl)piperidin-1-yl)-N4-methylpyrimidine-2,4-diamine] | 500 to 5000 nM

Row | SMILES | IC50
21 | Cc1cc(C(=O)NCCCN(C)C)ccc1-c1cc(O)c2ncccc2c1 [Compound 320, N-(3-(dimethylamino)propyl)-4-(8-hydroxyquinolin-6-yl)-3-methylbenzamide] | 500 to 5000 nM
22 | CC(C)c1cc(N2CCCC(c3cnc4ccccn34)C2)ncn1 (single isomer, unassigned) [Compound 149, (S/R)-3-(1-(6-isopropylpyrimidin-4-yl)piperidin-3-yl)imidazo[1,2-a]pyridine] | > 5000 nM
23 | CN(C)CCCNC(=O)c1ccc(-c2cc(O)c3nccc(N)c3c2)cc1 [Compound 265, 4-(4-amino-8-hydroxyquinolin-6-yl)-N-(3-(dimethylamino)propyl)benzamide] | 500 to 5000 nM
24 | CNc1cc(N2CCCC(c3nnc4ccccn34)C2)nc(N)n1 (stereo not drawn) [Compound 180, 6-(3-([1,2,4]triazolo[4,3-a]pyridin-3-yl)piperidin-1-yl)-N4-methylpyrimidine-2,4-diamine] | > 5000 nM
25 | Nc1nc(NC2CC2)cc(N2CCCC(c3cnc4ccccn34)C2)n1 (stereo not drawn) [Compound 107, N4-cyclopropyl-6-(3-(imidazo[1,2-a]pyridin-3-yl)piperidin-1-yl)pyrimidine-2,4-diamine] | 500 to 5000 nM
26 | c1ccn2c(C3CCCN(c4ncnc5c4CCCN5)C3)cnc2c1 (stereo not drawn) [Compound 58, 4-(3-(imidazo[1,2-a]pyridin-3-yl)piperidin-1-yl)-5,6,7,8-tetrahydropyrido[2,3-d]pyrimidine] | 500 to 5000 nM
27 | CC(C)c1cc(N2CCNC(c3cc(C(=O)N4CCN(C)CC4)ccc3Br)C2)nc(N)n1 (single isomer, unassigned) [Compound 17, (R/S)-(3-(4-(2-amino-6-isopropylpyrimidin-4-yl)piperazin-2-yl)-4-bromophenyl)(4-methylpiperazin-1-yl)methanone] | < 500 nM
28 | CN(C)CCCNC(=O)c1ccc(-c2cc(O)c3ncccc3c2)cc1N [Compound 312, 2-amino-N-(3-(dimethylamino)propyl)-4-(8-hydroxyquinolin-6-yl)benzamide] | < 500 nM
29 | CC(C)c1cc(N2CCNC(c3cccc(F)c3Br)C2)nc(N)n1 (stereo not drawn) [Compound 169, 4-(3-(2-bromo-3-fluorophenyl)piperazin-1-yl)-6-isopropylpyrimidin-2-amine] | < 500 nM
30 | Nc1nccc2ccc(-c3ccc4[nH]ncc4c3)cc12 [Compound 361, 7-(1H-indazol-5-yl)isoquinolin-1-amine] | < 500 nM
31 | CN(C)CCCNC(=O)c1c(F)cc(-c2cc(O)c3ncccc3c2)cc1F [Compound 314, N-(3-(dimethylamino)propyl)-2,6-difluoro-4-(8-hydroxyquinolin-6-yl)benzamide] | 500 to 5000 nM
32 | CC(C)c1cc(N2CCOC(c3ccccc3Br)C2)nc(N)n1 (racemic) [Compound 158, (R/S)-4-(2-(2-bromophenyl)morpholino)-6-isopropylpyrimidin-2-amine] | > 5000 nM
33 | CC(C)c1cc(N2CCNC(c3cc(Br)ccc3Br)C2)nc(N)n1 (stereo not drawn) [Compound 200, 4-(3-(2,5-dibromophenyl)piperazin-1-yl)-6-isopropylpyrimidin-2-amine] | 500 to 5000 nM
34 | NC(=O)CCC1CCCN(c2nc(N)nc3c2CSC3)C1 (stereo not drawn) [Compound 201, 3-(1-(2-amino-5,7-dihydrothieno[3,4-d]pyrimidin-4-yl)piperidin-3-yl)propanamide] | > 5000 nM
35 | Nc1cc(N2CCO[C@@](CO)(c3ccccc3Br)C2)nc(N)n1 (stereo in doubt) [Compound 37, (S/R)-(2-(2-bromophenyl)-4-(2,6-diaminopyrimidin-4-yl)morpholin-2-yl)methanol] | < 500 nM
36 | CN(C)CCNC(=O)c1ccc(-c2cc(O)c3ncnc(N)c3c2)cc1 [Compound 267, 4-(4-amino-8-hydroxyquinazolin-6-yl)-N-(2-(dimethylamino)ethyl)benzamide] | < 500 nM
37 | Nc1nccc2ccc(Cc3cccc(C(=O)N4CCCC4)c3)cc12 [Compound 343, (3-((1-aminoisoquinolin-7-yl)methyl)phenyl)(pyrrolidin-1-yl)methanone] | > 5000 nM
38 | Nc1nc(N2CCCC(c3ccn[nH]3)C2)c2[nH]cnc2n1 (stereo not drawn) [Compound 207, 6-(3-(1H-pyrazol-5-yl)piperidin-1-yl)-7H-purin-2-amine] | > 5000 nM
39 | Nc1nc(NCC2CC2)cc(N2CCOC(c3ccccc3Br)C2)n1 (single isomer, unassigned) [Compound 78, R or S-6-(2-(2-bromophenyl)morpholino)-N^4-(cyclopropylmethyl)pyrimidine-2,4-diamine] | < 500 nM
